Laboratory results reported in patent US9745246B2, “Method for preparing a salt of acetylsalicylic acid and a basic amino acid” (UNITHER PHARMACEUTICALS, priority 2014, dated 2017).

Experiments:
[1] = Stability study, Experiment 1: dry product stored at 5° C. under inert atmosphere in the dark for 3 months; type: physicochemical; conditions: storage 5° C.; for Stability over time: 3 months
Method: (§1) The analysis by HPLC is carried out according to the method of the European Pharmacopeia 2.2.29, as indicated below.
(§2) Residual moisture content: halogen loss on desiccation in a desiccator 5 g/90° C./20 min.
(§3) Water content: according to European Pharmacopeia 2.5.12, titration carried out by Karl Fisher titration on 1 g of ASL.
(§4) according to European Pharmacopeia 2.2.3, a solution is reconstituted by dissolving 1 g of ASL in 10 ml of water free of carbon dioxide, with stirring for 30 s. Its appearance is evaluated and its pH is measured.
(§5) Content of each unknown impurity: by HPLC assay, according to the operating protocol described above. The content of each impurity is determined by means of the following equation: […]
A study of stability of the product obtained in example 1 is carried out by storing the dry product under an inert atmosphere and in the dark, at a temperature of 5° C., for a period of 3 months.
At times T=0, T=1 month and T=3 months, a sample of product is taken and subjected to all the tests described in example 2.
By way of comparative example, the same experiment is carried out on a product obtained by means of the preparation process of the prior art described in document WO 2011/039432, providing in particular a molar deficiency in DL-lysine (more specifically, with an acetylsalicylic acid/DL lysine molar ratio equal to 1/0.89).

[2] = Stability study, Experiment 2: dry product (new synthesis batch) stored at 5° C. under inert atmosphere in the dark for 6 months; type: physicochemical; design: key to Appearance of the powder / Appearance of the reconstituted solution: C = complies; conditions: storage 5° C.
Method: as §1, §2, §3, §4, §5
A study of stability of the product obtained in example 1 (new synthesis batch) is carried out by storing the dry product under an inert atmosphere and in the dark, at a temperature of 5° C., for a period of 6 months.
At times T=0, T=1 month, T=3 months and T=6 months, a sample of product is taken and subjected to all the tests described in example 2.

[3] = time 0 months, listed as Method in accordance with the invention
[4] = time 1 month, listed as Method in accordance with the invention
[5] = time 3 months, listed as Method in accordance with the invention

DL-lysine acetylsalicylate [ASL]
Stability over time ([1]; listed as product obtained by means of the method in accordance with the invention of exam): remains stable over time | Impurities (%): Other unknown impurity ([1]; time 0 months): 0.02% | Impurities (%): Sum of the impurities ([1]; time 0 months): 0.15% | Water content (%) ([1]; time 0 months): 0.4% | HPLC content of acetylsalicylic acid (%) [1, 3]: 98.3% | Impurities (%): Salicylic acid [1, 3]: 0.13% | Residual moisture content (%) [1, 3]: 0.4% | pH of the reconstituted solution [1, 3]: 5.9 | Water content (%) ([1]; time 1 month): 0.5% | HPLC content of acetylsalicylic acid (%) [1, 4]: 98.5% | Impurities (%): Other unknown impurity [1, 4]: 0.02% | Impurities (%): Salicylic acid [1, 4]: 0.17% | Impurities (%): Sum of the impurities [1, 4]: 0.22% | Residual moisture content (%) [1, 4]: 0.6% | pH of the reconstituted solution [1, 4]: 5.6 | Water content (%) ([1]; time 3 months): 0.3% | HPLC content of acetylsalicylic acid (%) [1, 5]: 98.8% | Impurities (%): Other unknown impurity [1, 5]: 0.02% | Impurities (%): Salicylic acid [1, 5]: 0.21% | Impurities (%): Sum of the impurities [1, 5]: 0.25% | Residual moisture content (%) [1, 5]: 0.6% | pH of the reconstituted solution [1, 5]: 5.5 | Stability over time ([2]; 6 months): remains stable over time | Appearance of the powder ([2]; time 0 months): C | Appearance of the reconstituted solution ([2]; time 0 months): C | HPLC content of acetylsalicylic acid (%) ([2]; time 0 months): 97.5% | Impurities (%): Other unknown impurity ([2]; time 0 months): 0.03% | Impurities (%): Salicylic acid ([2]; time 0 months): 0.28% | Impurities (%): Sum of the impurities ([2]; time 0 months): 0.32% | Residual moisture content (%) ([2]; time 0 months): 0.7% | Water content (%) ([2]; time 0 months): 0.4% | pH of the reconstituted solution ([2]; time 0 months): 5.7 | Appearance of the powder ([2]; time 1 month): C | Appearance of the reconstituted solution ([2]; time 1 month): C | HPLC content of acetylsalicylic acid (%) ([2]; time 1 month): 97.5% | Impurities (%): Other unknown impurity ([2]; time 1 month): 0.03% | Impurities (%): Salicylic acid ([2]; time 1 month): 0.28% | Impurities (%): Sum of the impurities ([2]; time 1 month): 0.33% | Residual moisture content (%) ([2]; time 1 month): 0.5% | Water content (%) ([2]; time 1 month): 0.3% | pH of the reconstituted solution ([2]; time 1 month): 5.8 | Appearance of the powder ([2]; time 3 months): C | Appearance of the reconstituted solution ([2]; time 3 months): C | HPLC content of acetylsalicylic acid (%) ([2]; time 3 months): 98.1% | Impurities (%): Other unknown impurity ([2]; time 3 months): 0.03% | Impurities (%): Salicylic acid ([2]; time 3 months): 0.29% | Impurities (%): Sum of the impurities ([2]; time 3 months): 0.33% | Residual moisture content (%) ([2]; time 3 months): 0.6% | Water content (%) ([2]; time 3 months): 0.3% | pH of the reconstituted solution ([2]; time 3 months): 5.4 | Appearance of the powder ([2]; time 6 months): C | Appearance of the reconstituted solution ([2]; time 6 months): C | HPLC content of acetylsalicylic acid (%) ([2]; time 6 months): 97.5% | Impurities (%): Other unknown impurity ([2]; time 6 months): 0.03% | Impurities (%): Salicylic acid ([2]; time 6 months): 0.30% | Impurities (%): Sum of the impurities ([2]; time 6 months): 0.34% | Residual moisture content (%) ([2]; time 6 months): 0.6% | Water content (%) ([2]; time 6 months): 0.3% | pH of the reconstituted solution ([2]; time 6 months): 6.3

DL-lysine acetylsalicylate [Process of WO 2011/039432, reference compound]
Stability over time ([1]; listed as product obtained by means of a process of the prior art): much less stability over time | HPLC content of acetylsalicylic acid (%) ([1]; time 0 months): 93.6% | Impurities (%): Salicylic acid ([1]; time 0 months): 1.9% | Residual moisture content (%) ([1]; time 0 months): 0.72% | pH of the reconstituted solution ([1]; time 0 months): 5.2 | HPLC content of acetylsalicylic acid (%) ([1]; time 1 month): 90.0% | Impurities (%): Other unknown impurity ([1]; time 1 month): 0.026% | Impurities (%): Salicylic acid ([1]; time 1 month): 1.9% | Impurities (%): Sum of the impurities ([1]; time 1 month): 0.09% | Residual moisture content (%) ([1]; time 1 month): 0.61% | pH of the reconstituted solution ([1]; time 1 month): 5.2 | HPLC content of acetylsalicylic acid (%) ([1]; time 3 months): 91.6% | Impurities (%): Other unknown impurity ([1]; time 3 months): 0.027% | Impurities (%): Salicylic acid ([1]; time 3 months): 2.0% | Impurities (%): Sum of the impurities ([1]; time 3 months): 0.07% | Residual moisture content (%) ([1]; time 3 months): 0.61% | pH of the reconstituted solution ([1]; time 3 months): 5.1
